Results reported in patent publication US20250288576A1, “SPECIFIC TETRADENTATE COPPER CHELATORS AS ANTICANCER AGENTS” (Guangdong University of Technology, priority 2024, published 2025).

Key:
[1] = system: metastatic melanoma A375; assay: MTT cell viability assay, A375; assay type: cell-based; details: Homo sapiens, A-375, 48 h incubation, mean ± SD of at least three experiments
Procedure: (§1) The cytotoxicity of several compounds from the TDMQ series, especially TDMQ20, was evaluated on several human cancer cell lines. The clinically used anticancer drug 5-fluorouracil (5-FU) was used as comparator.
(§2) The targeted human cancer lines were 1) the metastatic melanoma A375, 2) the non-small cell lung adenocarcinoma A549, 3) the melanoma COLO-829, 4) the cervical cancer HeLa, 5) the hepatocellular carcinoma HepG2. The human immortalized keratinocyte cell line HaCaT was used as non-cancer reference cell line.
(§3) The MTT test was used to measure the cell viability. In this test, the applied colorless tetrazolium salt is reduced by mitochondrial succinate dehydrogenase, thus producing the violet formazan derivative that is quantified by UV-visible spectrometry at 570 nm.

[2] = system: non-small cell lung adenocarcinoma A549; assay: MTT cell viability assay, A549; assay type: cell-based, human; details: for IC50: MTT, 48 h incubation, mean ± SD of at least three experiments
Procedure: as §1, §2, §3

[3] = system: melanoma COLO-829; assay: MTT cell viability assay, COLO-829; assay type: cell-based; details: Homo sapiens, 48 h incubation, mean ± SD of at least three experiments
Procedure: as §1, §2, §3

[4] = system: cervical cancer HeLa; assay: MTT cell viability assay, HeLa; assay type: cell-based, human; details: 48 h incubation, mean ± SD of at least three experiments
Procedure: as §1, §2, §3

[5] = system: hepatocellular carcinoma HepG2; assay: MTT cell viability assay, HepG2; assay type: cell-based, human; details: 48 h incubation, mean ± SD of at least three experiments
Procedure: as §1, §2, §3

[6] = system: immortalized keratinocyte cell line HaCaT; assay: MTT cell viability assay, HaCaT (non-cancer reference); assay type: cell-based, human; details: 48 h incubation, non-cancer cells, mean ± SD of at least three experiments
Procedure: as §1, §2, §3

[7] = system: HeLa cells; assay: Colony-forming assay; assay type: cell-based, human; details: 14th day after treatment
Procedure: (A) Representative images of colonies formed by HeLa cells at the 14th day after treatment with increasing concentrations of TDMQ20. (B) Quantitative analysis of this clonogenicity assay. **p<0.01, ****p<0.0001 vs. control. “Control” stands for untreated cells.
Colony-forming assay. The proliferation of HeLa cells exposed to various concentrations of TDMQ20 was evaluated at the 14th day after treatment.

[8] = system: HeLa cells; assay: Wound healing assay (scratch assay); assay type: cell-based, human; details: 14.5 μM, 24 h
Procedure: (A) Representative images of wounds formed by HeLa cells after treatment with TDMQ20. (B) Quantitative analysis of the wound closure upon treatment by TDMQ20. ****p<0.0001 vs. control. “Control” stands for untreated cells. Scale bar: 250 μm.
Wound healing assay (or “scratch assay”). The migratory ability of Hela cells in the presence of TDMQ20 was evaluated using the wound healing assay monitored by optical microscopy. Measurement after 24 h of the width of the “wound” created in a cell monolayer quantify the migration rate of the cells to close the wound. This method mimics cell migration during wound healing in vivo. For cancer cells, cell migration is involved in several processes such as tumor invasion, neo-angiogenesis and metastasis (X. Wang et al., BMC Pharmacol. Toxicol. 2019, 20, 4).

[9] = system: HeLa cells; assay: Apoptosis, annexin V-FITC/PI flow cytometry; assay type: cell-based, human; details: 48 h incubation
Procedure: FIG. 3. Pro-apoptotic activity of TDMQ20 on HeLa cells after 48 h of incubation. (A) Quantitative analysis of necrotic cells (quadrant Q1), early apoptotic cells (quadrant Q2), advanced apoptotic cells (quadrant Q3) and non-apoptotic cells (quadrant Q4), using annexin V/propidium iodide (PI) staining and detection by flow cytometry. “Control” stands for untreated cells. (B) Histograms represent the proportion of apoptotic cells (Q2+Q3) within the flow cytometry charts; “ns” stands for p>0.05, ****p<0.0001 vs. control.
The pro-apoptotic activity of TDMQ20 in Hela cells was evaluated after 48 h of incubation with the drug, using the annexin V-FITC/PI method (FITC and PI stand for fluoresceine-5-isothiocyanate and propidium iodide, respectively). After staining, live cells show little or no fluorescence (annexin V−/PI−), early apoptosis cells show green fluorescence (annexin V+/PI−), late apoptosis cells and necrosis cells show red and green fluorescence (annexin V+/PI+). Cells were detected by flow cytometry. IDEAS software was used for acquisition of data and FlowJo v. X software was used for analysis of data. The total proportion of apoptotic cells, including early apoptosis (quadrants Q2) or late apoptosis (quadrants Q3) or necrosis (quadrants Q1), accounted for 51%, 15% and 9% when HeLa cells were treated with TDMQ20 at the concentration of […], 7.3 μM and 3.7 μM, respectively. So, TDMQ20 induced the apoptosis of HeLa cells in a dose-dependent manner.

[10] = system: HeLa cells; assay: ROS production, DCF fluorescence (H2DCF-DA) flow cytometry; assay type: cell-based, human; details: 48 h incubation
Procedure: FIG. 4. ROS production induced by TDMQ20 in HeLa cells, detected by DCF fluorescence after 48 h of incubation. ***p<0.001, ****p<0.0001.
The most straightforward technique for measuring the production of […] in cells is the use of the cell permeable fluorescent probe 2′,7′-dichlorodihydrofluorescein diacetate (H2DCF-DA). In the presence of ROS, predominantly H2O2, H2DCF is rapidly oxidized to 2′,7′-dichlorofluorescein (DCF) which is highly fluorescent, with excitation and emission wavelengths of 498 and 522 nm, respectively. The stained cells were analyzed by flow cytometry and analyzed by the FlowJo v.Xsoftware.

[11] = system: HeLa cells; assay: Mitochondrial membrane potential, JC-1 staining flow cytometry; assay type: cell-based, human; details: increasing concentration of TDMQ20, 48 h
Excerpt: FIG. 5. (A) Red/green fluorescence of HeLa cells treated with various concentrations of TDMQ20, and stained by JC-1, as an indirect measure of mitochondrial membrane potential (ΔΨm). Detection by flow cytometry. (B) Histograms presenting data of panel A as mean values of three independent experiments±SD; ****p<0.0001 vs. control.
The higher is the ΔΨm, the more elevated is the red shift of the dye (more aggregates formed); vice-versa, the lower is the ΔΨm of the mitochondria and the lower is the red to green ratio of the fluorescent marker (few aggregates formed). Therefore, the ratio of red/green fluorescence intensities is significant of mitochondrial integrity and function, and mitochondrial depolarization is indicated by a reduction in the red to green fluorescence intensity ratio.
This method was used to evaluate the mitochondrial membrane potential in HeLa cells incubated with various concentrations of TDMQ20 for 48 h, using staining with JC-1, and quantification by flow cytometry treated with the FlowJo v. X software.

## O=c1[nH]cc(F)c(=O)[nH]1 [5-FU, 5-fluorouracil, reference compound]
[1]
  IC50: 68.5 ± 4 µM
[2]; Homo sapiens, A549, 48 h
  IC50: 72.6 ± 10 µM
[3]
  IC50: 48.7 ± 0.7 µM
[4]; Homo sapiens, HeLa, 48 h
  IC50: 20.3 ± 4.6 µM
[5]; Homo sapiens, HepG2, 48 h
  IC50: 46.7 ± 4.7 µM
[6]; Homo sapiens, HaCaT, 48 h
  IC50: 30 µM

## CN(C)CCNCCc1ccc2c(Cl)cc(Cl)c(N)c2n1 [TDMQ20]
[1]
  IC50: 38.1 ± 7 µM
[2]; Homo sapiens, A549, 48 h
  IC50: 14 to 16 µM
[2]
  IC50: 16.2 ± 2.9 µM
[2]; lung adenocarcinoma A549 cells
  Cytotoxic activity relative to the reference drug 5-FU: four times higher
[3]
  IC50: 40.2 ± 4.9 µM
[4]
  IC50: 14.5 ± 0.8 µM
[4]; Homo sapiens, HeLa, 48 h
  IC50: 14 to 16 µM
[5]
  IC50: 16.6 ± 4.7 µM
[5]; Homo sapiens, HepG2, 48 h
  IC50: 14 to 16 µM
[6]
  IC50: 41.1 ± 4.8 µM
[6]; Homo sapiens, HaCaT, 48 h
  IC50: 41 µM
[7]; TDMQ20 = 12 μM
  HeLa cells in colony-forming assay: not detectable
[7]; increasing drug concentration from 1.5 to 12 μM
  Number of HeLa cells in cultures (colony-forming ability): drastically decreased
[8]
  HeLa cell migration to close a wound: significantly inhibited
[9]; 3.7 μM
  Total proportion of apoptotic cells (early, late apoptosis, necrosis): 9%
[9]; 7.3 μM
  Total proportion of apoptotic cells (early, late apoptosis, necrosis): 15%
[9]; 14.5 μM
  Total proportion of apoptotic cells (early, late apoptosis, necrosis): 51%
[10]; 3.7 μM
  Fluorescence of DCF, % of the control cells: 125%
[10]; 7.3 μM
  Fluorescence of DCF, % of the control cells: 138%
[10]; 14.5 μM
  Fluorescence of DCF, % of the control cells: 150%
[11]
  JC-1 red/green fluorescence ratio (mitochondrial transmembrane potential ΔΨm): drastic decrease
